Literature values as cited in US20160136093A9, “ENGINEERED AEROSOL PARTICLES, AND ASSOCIATED METHODS” (priority 2009, published 2016).

System: non-replicating TB
Conditions: after one month, in vitro

Capreomycin
decrease in colony forming units (CFU): one to two
